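Exposure lasted 48 hours, with cells grown in 96-well plates and compounds tested at five concentrations. TGI marks complete inhibition of growth.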
Tests used:
Assay in all cases: NCI-60 cell line screen, 48 h
A549 NSCLC = system: A549 NSCLC
CAKI-1 renal = system: CAKI-1 renal
EKVX NSCLC = system: EKVX NSCLC
LOX IMVI melanoma = system: LOX IMVI melanoma
MCF7 breast = system: MCF7 breast
PC-3 prostate = system: PC-3 prostate
UACC-257 melanoma = system: UACC-257 melanoma

COC(=O)c1ccccc1/C=C1\Cc2cc3c(cc2C1=O)CCC3
TGI (A549 NSCLC): > 100 µM
TGI (CAKI-1 renal): > 100 µM
TGI (EKVX NSCLC): > 100 µM
TGI (LOX IMVI melanoma): > 100 µM
TGI (MCF7 breast): > 100 µM
TGI (PC-3 prostate): > 100 µM
TGI (UACC-257 melanoma): > 100 µM

Oc1ccc(-c2c3ccccc3c(-c3ccc(OCCBr)cc3)c3ccccc23)cc1
TGI (A549 NSCLC): 69.1 µM
TGI (CAKI-1 renal): 67.1 µM
TGI (EKVX NSCLC): > 100 µM
TGI (LOX IMVI melanoma): 38.9 µM
TGI (MCF7 breast): 32 µM
TGI (PC-3 prostate): 73.2 µM
TGI (UACC-257 melanoma): 54.5 µM

CC1=NN(C(=O)CC(=O)Nc2ccccc2C)C(=O)C1N=Nc1ccc(S(=O)(=O)c2ccc(N=NC3C(=O)N(C(=O)CC(=O)Nc4ccccc4C)N=C3C)cc2)cc1 (stereo not drawn)
TGI (A549 NSCLC): > 100 µM
TGI (CAKI-1 renal): > 100 µM
TGI (EKVX NSCLC): > 100 µM
TGI (LOX IMVI melanoma): > 100 µM
TGI (MCF7 breast): > 100 µM
TGI (PC-3 prostate): > 100 µM
TGI (UACC-257 melanoma): > 100 µM

NC(=O)Cc1ncn(-c2ccccc2)n1
TGI (A549 NSCLC): > 100 µM
TGI (CAKI-1 renal): > 100 µM
TGI (EKVX NSCLC): > 100 µM
TGI (LOX IMVI melanoma): > 100 µM
TGI (MCF7 breast): > 100 µM
TGI (UACC-257 melanoma): > 100 µM

CC(=O)O[C@H]1C(=O)[C@@]2(C)[C@H]([C@H](OC(=O)c3ccccc3)[C@]3(O)C[C@H](OC(=O)[C@H](O)[C@@H](NC(=O)c4ccccc4)C4CCCCC4)C(C)=C1C3(C)C)[C@]1(OC(C)=O)CO[C@@H]1C[C@@H]2O
TGI (A549 NSCLC): > 100 µM
TGI (CAKI-1 renal): > 100 µM
TGI (EKVX NSCLC): > 100 µM
TGI (LOX IMVI melanoma): > 56.4 µM
TGI (MCF7 breast): 25.9 µM
TGI (PC-3 prostate): 2.91 µM

Nc1ncnc2c1ncn2[C@@H]1C[C@H]1CO
TGI (A549 NSCLC): > 100 µM
TGI (EKVX NSCLC): > 100 µM
TGI (LOX IMVI melanoma): > 100 µM
TGI (MCF7 breast): > 100 µM
TGI (PC-3 prostate): > 100 µM
TGI (UACC-257 melanoma): > 100 µM

CCCCOP(=O)(OCCCC)/C(C#N)=C/c1ccc(C)o1
TGI (A549 NSCLC): > 100 µM
TGI (CAKI-1 renal): > 100 µM
TGI (EKVX NSCLC): > 100 µM
TGI (LOX IMVI melanoma): > 100 µM
TGI (MCF7 breast): > 100 µM
TGI (PC-3 prostate): 51.4 µM
TGI (UACC-257 melanoma): > 100 µM

COC(=O)C1=C(C(=O)OC)SC(=C2c3ccsc3-c3sccc32)S1
TGI (A549 NSCLC): > 100 µM
TGI (CAKI-1 renal): > 100 µM
TGI (EKVX NSCLC): > 100 µM
TGI (LOX IMVI melanoma): > 100 µM
TGI (MCF7 breast): > 100 µM
TGI (PC-3 prostate): > 100 µM
TGI (UACC-257 melanoma): > 100 µM

O=C(Cn1c(C(=O)/C=C/c2ccco2)nc2ccccc21)c1ccc(Cl)cc1
TGI (A549 NSCLC): > 100 µM
TGI (LOX IMVI melanoma): 26.7 µM
TGI (MCF7 breast): 76.4 µM
TGI (PC-3 prostate): 44.2 µM
TGI (UACC-257 melanoma): 51.9 µM

CC(C)(C)c1ccc(-c2nc3ccccc3c(=O)o2)cc1
TGI (A549 NSCLC): 86.6 µM
TGI (CAKI-1 renal): > 100 µM
TGI (EKVX NSCLC): > 100 µM
TGI (LOX IMVI melanoma): 37.4 µM
TGI (MCF7 breast): 62.2 µM
TGI (PC-3 prostate): > 100 µM
TGI (UACC-257 melanoma): > 100 µM

CC(C)(C)[Si](C)(C)OCC1OC(n2cc(F)c(=O)[nH]c2=O)CC1O[Si](C)(C)C(C)(C)C (stereo not drawn)
TGI (A549 NSCLC): 25.6 µM
TGI (CAKI-1 renal): 25.6 µM
TGI (EKVX NSCLC): 21.7 µM
TGI (LOX IMVI melanoma): 20 µM
TGI (MCF7 breast): 24.9 µM
TGI (PC-3 prostate): 14.2 µM
TGI (UACC-257 melanoma): 15.9 µM

COC(=O)[C@@]12CC[C@]1(C(=O)OC)C1C(C)=CC(=O)O[C@@]12C (stereo partly drawn)
TGI (A549 NSCLC): > 100 µM
TGI (EKVX NSCLC): > 100 µM
TGI (LOX IMVI melanoma): > 100 µM
TGI (MCF7 breast): > 100 µM
TGI (PC-3 prostate): > 100 µM
TGI (UACC-257 melanoma): > 100 µM

O=C(Nc1ccc(Cl)c(Cl)c1)C(=O)C(C1OC(=O)c2ccccc21)[N+](=O)[O-] (stereo not drawn)
TGI (A549 NSCLC): > 100 µM
TGI (CAKI-1 renal): > 100 µM
TGI (EKVX NSCLC): > 100 µM
TGI (LOX IMVI melanoma): > 100 µM
TGI (MCF7 breast): > 100 µM
TGI (PC-3 prostate): > 100 µM
TGI (UACC-257 melanoma): > 100 µM

O=C1C=C(c2c(-c3ccccc3)[nH]c3ccccc23)C(=O)N1c1ccccc1
TGI (A549 NSCLC): 46.4 µM
TGI (CAKI-1 renal): 25.7 µM
TGI (EKVX NSCLC): 38.5 µM
TGI (LOX IMVI melanoma): 24 µM
TGI (PC-3 prostate): 21.8 µM
TGI (UACC-257 melanoma): 30.6 µM

Cc1c(C)c(S(=O)(=O)N(CCCCCN)OCCCN)c(C)c2c1OC(C)(C)CC2
TGI (A549 NSCLC): > 100 µM
TGI (CAKI-1 renal): > 59.1 µM
TGI (EKVX NSCLC): 25.3 µM
TGI (LOX IMVI melanoma): > 44.4 µM
TGI (MCF7 breast): > 100 µM
TGI (PC-3 prostate): 18 µM
TGI (UACC-257 melanoma): 38.6 µM

COc1cc(CNc2nc3ccccc3nc2-c2cccs2)cc(OC)c1OC
TGI (A549 NSCLC): > 100 µM
TGI (CAKI-1 renal): 28.4 µM
TGI (EKVX NSCLC): > 100 µM
TGI (LOX IMVI melanoma): 42.6 µM
TGI (MCF7 breast): > 100 µM
TGI (PC-3 prostate): 39.4 µM
TGI (UACC-257 melanoma): > 100 µM

CCc1ccc(CCC(=O)O)nc1
TGI (A549 NSCLC): > 100 µM
TGI (CAKI-1 renal): > 100 µM
TGI (EKVX NSCLC): > 100 µM
TGI (LOX IMVI melanoma): > 100 µM
TGI (MCF7 breast): > 100 µM
TGI (PC-3 prostate): > 100 µM
TGI (UACC-257 melanoma): > 100 µM

COC(=O)c1cc(C)n2c1CS[C@@H]2c1ccccc1
TGI (A549 NSCLC): > 100 µM
TGI (CAKI-1 renal): > 100 µM
TGI (EKVX NSCLC): 93.2 µM
TGI (LOX IMVI melanoma): > 100 µM
TGI (MCF7 breast): > 100 µM
TGI (PC-3 prostate): > 100 µM
TGI (UACC-257 melanoma): > 100 µM

CN(C)C1(C(=O)O)CC1
TGI (A549 NSCLC): > 100 µM
TGI (EKVX NSCLC): > 100 µM
TGI (LOX IMVI melanoma): > 100 µM
TGI (MCF7 breast): > 100 µM
TGI (PC-3 prostate): > 100 µM
TGI (UACC-257 melanoma): > 100 µM

O/N=C(\C=N\O)c1ccc2c(c1)Sc1ccccc1O2
TGI (A549 NSCLC): > 100 µM
TGI (CAKI-1 renal): 61.1 µM
TGI (EKVX NSCLC): 48.9 µM
TGI (LOX IMVI melanoma): > 100 µM
TGI (MCF7 breast): 40.6 µM
TGI (PC-3 prostate): 66.1 µM
TGI (UACC-257 melanoma): 42 µM

CC1=Nc2nc3ccccc3n2C(C)(C)C1
TGI (A549 NSCLC): > 100 µM
TGI (CAKI-1 renal): > 100 µM
TGI (EKVX NSCLC): > 100 µM
TGI (LOX IMVI melanoma): > 100 µM
TGI (MCF7 breast): > 100 µM
TGI (PC-3 prostate): > 100 µM
TGI (UACC-257 melanoma): > 100 µM

Cn1c(=O)nc2n(CCO)ccnc-2c1=O
TGI (A549 NSCLC): > 100 µM
TGI (CAKI-1 renal): > 100 µM
TGI (EKVX NSCLC): > 100 µM
TGI (LOX IMVI melanoma): > 100 µM
TGI (MCF7 breast): > 100 µM
TGI (PC-3 prostate): > 100 µM
TGI (UACC-257 melanoma): > 100 µM

CCOC(=O)C1=C(OS(=O)(=O)C(F)(F)F)CCCC1
TGI (A549 NSCLC): > 100 µM
TGI (CAKI-1 renal): > 100 µM
TGI (EKVX NSCLC): > 100 µM
TGI (LOX IMVI melanoma): > 100 µM
TGI (MCF7 breast): > 100 µM
TGI (PC-3 prostate): > 100 µM
TGI (UACC-257 melanoma): > 100 µM

Cc1nc2c(=O)[nH]c3ccccc3c2o1
TGI (A549 NSCLC): > 100 µM
TGI (CAKI-1 renal): > 100 µM
TGI (EKVX NSCLC): > 100 µM
TGI (LOX IMVI melanoma): > 100 µM
TGI (MCF7 breast): > 100 µM
TGI (PC-3 prostate): > 100 µM
TGI (UACC-257 melanoma): > 100 µM

CCOC(=O)C1(Cc2ccccc2)Cc2cc3c(cc2C1=O)CCC3 (stereo not drawn)
TGI (A549 NSCLC): > 100 µM
TGI (EKVX NSCLC): > 100 µM
TGI (LOX IMVI melanoma): > 100 µM
TGI (MCF7 breast): > 100 µM
TGI (PC-3 prostate): > 100 µM
TGI (UACC-257 melanoma): > 100 µM

Cn1c(=O)cc(NNc2ccc(Br)cc2)[nH]c1=O
TGI (A549 NSCLC): 29.8 µM
TGI (EKVX NSCLC): 37.5 µM
TGI (LOX IMVI melanoma): 4.13 µM
TGI (MCF7 breast): 26.8 µM
TGI (PC-3 prostate): 22.1 µM
TGI (UACC-257 melanoma): 29.1 µM

Cn1c(=O)oc2cc(C(=S)N3CCC(Cc4ccccc4)CC3)ccc21
TGI (CAKI-1 renal): > 100 µM
TGI (EKVX NSCLC): > 100 µM
TGI (LOX IMVI melanoma): > 100 µM
TGI (MCF7 breast): > 100 µM
TGI (PC-3 prostate): > 100 µM
TGI (UACC-257 melanoma): > 100 µM
